Source: doi:10.1101/2025.03.26.645513v1 (biorxiv, 2025)

Assays:
Assay in all cases: acid ninhydrin cysteine assay, A560
[1] = target: T1, SaCysK (Staphylococcus aureus, UniProt P63871); assay type: biochemical; conditions: substrate inhibition constant, MOPS, 37 °C, no glycerol
T1 sequence (P63871 1-310): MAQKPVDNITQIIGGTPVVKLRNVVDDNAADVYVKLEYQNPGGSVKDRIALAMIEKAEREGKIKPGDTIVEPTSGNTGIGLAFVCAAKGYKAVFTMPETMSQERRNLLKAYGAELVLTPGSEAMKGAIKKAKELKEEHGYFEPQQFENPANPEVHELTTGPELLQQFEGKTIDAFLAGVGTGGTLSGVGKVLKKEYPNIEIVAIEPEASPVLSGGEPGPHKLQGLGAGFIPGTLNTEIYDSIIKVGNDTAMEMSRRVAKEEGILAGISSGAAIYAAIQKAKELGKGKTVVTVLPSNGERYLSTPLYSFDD

[2] = target: NgCysK (Neisseria gonorrhoeae, UniProt Q5F9Q2); conditions: read-out: Khalf; 10 mM OAS; MOPS; 37 °C; no glycerol; cooperative
[3] = target: T1, SaCysK; conditions: 10 mM OAS; MOPS; 37 °C; no glycerol

Sequence of NgCysK (Q5F9Q2 1-310): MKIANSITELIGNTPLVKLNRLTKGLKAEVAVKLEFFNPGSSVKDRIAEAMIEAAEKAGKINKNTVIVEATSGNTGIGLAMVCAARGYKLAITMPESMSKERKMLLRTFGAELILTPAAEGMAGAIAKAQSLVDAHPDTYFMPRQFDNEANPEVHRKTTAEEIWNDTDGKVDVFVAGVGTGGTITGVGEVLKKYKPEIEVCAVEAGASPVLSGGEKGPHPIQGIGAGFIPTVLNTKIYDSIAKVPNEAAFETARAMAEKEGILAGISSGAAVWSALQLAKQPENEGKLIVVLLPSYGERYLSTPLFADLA

Ki ([1]; 15 mM Na2S) [mM]	SMILES	Ki ([1]; 10 mM OAS) [mM]	Km [2] [mM]	Km [3] [mM]
6.265 ± 2.489	CC(=O)OC[C@H](N)C(=O)O [O-acetylserine]	–	–	–
–	S [sodium sulfide]	15.970 ± 12.793	23.6 ± 10.8	2.31 ± 3.57
